Experiments:
C/EBP-α [1] = experiment: C/EBP-α expression in mouse cortex (RT-PCR, western blot); type: in vivo; conditions: Fig. 4A, B
Method: 1 mL of RNAiso Plus solution was added to the pulverized rodent cerebral cortex samples or cellular material. Following complete homogenization, the liquid fraction was extracted after high-speed centrifugation. The overall RNA pellet was then washed with 75% ethanol, and the RNA was subsequently harvested for reverse transcription. These specific procedures were carried out in accordance with the instructions provided in the PrimeScript RT reagent Kit (TaKaRa, Japan). Real-time PCR detection was performed following the experimental protocols of the Applied Biosystems 7300 instrument. Gene expression levels were determined based on cycle threshold counts.
Claudin-1 and C/EBP-α were analyzed in brain homogenates (right hemisphere: Sham, MCAO, MCAO + TZP) and HBMVECs (Control, OGD/R, OGD/R + TZP). A lysis solution, composed of 1% protease inhibitor in RIPA buffer (Sigma-Aldrich, R0278), was introduced to samples, which were homogenized over ice for 30 min. The homogenate was centrifuged at 13,500 rpm for 10 min at 4 °C. Protein was quantified using the BCA assay kit (Sigma-Aldrich, BCA1), and 50 µg protein/lane was separated on 10% SDS-PAGE and transferred to PVDF in electrophoresis buffer at 200 mA for 2 h. The membrane was blocked with 5% skim milk in TBST for 1 h. […] Bands were detected via ECL (Bio-Rad, 1705061), quantified with ImageJ, and normalized to GAPDH.

HBMVECs = experiment: FITC-dextran permeation across OGD/R-challenged HBMVECs; type: cell-based, human
Method: HBMVECs were sourced from ATCC (USA). These cells were cultivated in a medium specifically designed for endothelial cultures, enriched with 10% FBS, and maintained in an incubator set at a temperature of 37 °C with 5% CO2. For OGD/R modeling, the culture medium was replaced with a serum-free, glucose-free medium, and then it was placed in a hypoxic environment (1% O2, 5% CO2, 94% N2) at a 37 °C incubator for 10 h. After 10 h, the normal medium containing serum was added, and the normal oxygen supply was restored. The cells were then kept in a 37 °C constant temperature incubator for 24 h of reoxygenation. To silence C/EBP-α, HBMVECs were transduced with adenovirus harboring a short hairpin RNA (shRNA) specifically designed to knock down C/EBP-α (Ad-viral sh-C/EBP-α) for 48 h. A serum-free medium was used to dilute FITC-dextran to various concentrations for the establishment of a calibration curve. Subsequently, HBMVECs were cultured in the upper section of the Transwell setup. Thereafter, 100 µL of a 1 mg/mL FITC-conjugated dextran solution was added to the upper section and allowed to rest for 1 h in a shielded environment at 37 °C with 5% CO2. Post incubation, 100 µL of fluid was drawn from the lower section, and the luminescence intensity of the fluid in the lower section was quantified using a luminescence photometer (494/520 nm). Regarding the calibration curve and the observed luminescence intensity, the permeation level of FITC-dextran across the Transwell chamber was computed (µg/mL).

C/EBP-α [2] = experiment: C/EBP-α expression in OGD/R-stimulated HBMVECs (real-time PCR, western blot); type: cell-based, human; conditions: OGD/R + 50 and 100 nM TZP vs. OGD/R, Fig. 8A, B
Method: 1 mL of RNAiso Plus solution was added to the pulverized rodent cerebral cortex samples or cellular material. Following complete homogenization, the liquid fraction was extracted after high-speed centrifugation. The overall RNA pellet was then washed with 75% ethanol, and the RNA was subsequently harvested for reverse transcription. These specific procedures were carried out in accordance with the instructions provided in the PrimeScript RT reagent Kit (TaKaRa, Japan). Real-time PCR detection was performed following the experimental protocols of the Applied Biosystems 7300 instrument. Gene expression levels were determined based on cycle threshold counts. Claudin-1 and C/EBP-α were analyzed in brain homogenates (right hemisphere: Sham, MCAO, MCAO + TZP) and HBMVECs (Control, […] lysis solution, composed of 1% protease inhibitor in RIPA buffer (Sigma-Aldrich, R0278), was introduced to samples, which were homogenized over ice for 30 min. The homogenate was centrifuged at 13,500 rpm for 10 min at 4 °C. Protein was quantified using the BCA assay kit (Sigma-Aldrich, BCA1), and 50 μg protein/lane was separated on 10% SDS-PAGE and transferred to PVDF in electrophoresis buffer at 200 mA for 2 h. The membrane was blocked with 5% skim milk in TBST for 1 h. […] Bands were detected via ECL (Bio-Rad, 1705061), quantified with ImageJ, and normalized to GAPDH. […]

Compound: CC[C@H](C)[C@H](NC(=O)[C@H](CC(C)C)NC(=O)[C@H](Cc1c[nH]c2ccccc12)NC(=O)[C@H](CCC(N)=O)NC(=O)[C@@H](NC(=O)[C@H](Cc1ccccc1)NC(=O)[C@H](C)NC(=O)[C@H](CCCCNC(=O)COCCOCCNC(=O)COCCOCCNC(=O)CC[C@H](NC(=O)CCCCCCCCCCCCCCCCCCC(=O)O)C(=O)O)NC(=O)[C@H](CCC(N)=O)NC(=O)[C@H](C)NC(=O)[C@@H](NC(=O)[C@H](CCCCN)NC(=O)[C@H](CC(=O)O)NC(=O)[C@H](CC(C)C)NC(=O)C(C)(C)NC(=O)[C@@H](NC(=O)[C@H](CO)NC(=O)[C@H](Cc1ccc(O)cc1)NC(=O)[C@H](CC(=O)O)NC(=O)[C@H](CO)NC(=O)[C@@H](NC(=O)[C@H](Cc1ccccc1)NC(=O)[C@@H](NC(=O)CNC(=O)[C@H](CCC(=O)O)NC(=O)C(C)(C)NC(=O)[C@@H](N)Cc1ccc(O)cc1)[C@@H](C)O)[C@@H](C)O)[C@@H](C)CC)[C@@H](C)CC)C(C)C)C(=O)N[C@@H](C)C(=O)NCC(=O)NCC(=O)N1CCC[C@H]1C(=O)N[C@@H](CO)C(=O)N[C@@H](CO)C(=O)NCC(=O)N[C@@H](C)C(=O)N1CCC[C@H]1C(=O)N1CCC[C@H]1C(=O)N1CCC[C@H]1C(=O)N[C@@H](CO)C(N)=O [TZP, Tirzepatide]
- C/EBP-α levels in cortex tissues (mRNA, protein) (C/EBP-α [1]; MCAO + TZP vs. MCAO (markedly decreased), 10 nmol/kg i.p. weekly, 8 weeks): largely enhanced
- C/EBP-α levels in cortex tissues (mRNA, protein) (C/EBP-α [1]; TZP group (sham-operated, 10 nmol/kg i.p. weekly, 8 weeks) vs. Sham): notably elevated
- FITC concentrations in the lower chamber (FITC-dextran permeation) (HBMVECs; OGD/R + 50 nM TZP, 24 h, control 0.41, OGD/R 1.15, Fig. 6A): 0.83 mg/mL
- FITC concentrations in the lower chamber (FITC-dextran permeation) (HBMVECs; OGD/R + 100 nM TZP, 24 h, control 0.41, OGD/R 1.15, Fig. 6A): 0.57 mg/mL
- FITC concentrations in the lower chamber (FITC-dextran permeation) (HBMVECs; sh-C/EBP-α experiment, OGD/R + TZP (100 nM), control 0.42, OGD/R 1.03, Fig. 9B): 0.61 mg/mL
- FITC concentrations in the lower chamber (FITC-dextran permeation) (HBMVECs; sh-C/EBP-α experiment, OGD/R + sh-C/EBP-α + TZP (100 nM), control 0.42, OGD/R 1.03, Fig. 9B): 0.93 mg/mL
- C/EBP-α levels (mRNA, protein) (C/EBP-α [2]): largely promoted
